Measurements: patent US9624213B2 (Plexxikon Inc., priority 2011, dated 2017)

Key:
A375 = experiment: A375_P-ERK / A375 cell activity; type: cell-based; details: Homo sapiens, A-375; A375 cells (A375_P-ERK)
Method: (§1) Compounds are assessed in a variety of cell based assays. For example human cell lines with B-Raf V600E mutation (A375 melanoma, SKMEL3 melanoma, and COLO205 colon adenocarcinoma), as well as tumorigenic cell lines with wild-type B-RAF (SW620 colon adenocarcinoma) or with Ras mutations (SKMEL2 melanoma and IPC298 melanoma). Similar assays may be used to assess additional tumorigenic cell lines with Ras mutations, including, but not limited to, M202, M207, M243, M244, M296, S117, HCT116, HCT15, DLD1, MiaPaCa, A549, NCI-H23, NCI-H460, HOP62, MDA-MB231, Hs-578T, HL60, MOLT-4, and CCRF-CEM.
(§2) On day 1, cells are counted, then centrifuged in a conical tube for 5 minutes at 1000 rpm. The supernatant is removed and cells are re-suspended as follows: • SW620 (ATCC catalog #CCL-27): resuspend in Leibovitz's L-15 medium, 2 mM L-glutamine, 10% fetal bovine serum to 6×10^4 cells/mL. • A375 (ATCC catalog #CRL-1619): resuspend in Dulbecco's modified Eagle's medium, 4 mM L-glutamine, 4.5 g/L D-glucose, 10% fetal bovine serum to 6×10^4 cells/mL. • COLO205 (ATCC catalog #CCL-222): resuspend in RPMI 1640, 2 mM L-glutamine, 1.5 g/L sodium bicarbonate, 4.5 g/L D-glucose, 10 mM HEPES, 1.0 mM sodium pyruvate, 10% fetal bovine serum to 6×10^4 cells/mL. • SKMEL2 (ATCC catalog #HTB-68): resuspend in Minimum Eagle essential medium, 2 mM L-glutamine, 1.5 g/L sodium bicarbonate, 0.1 mM non-essential amino acids, 1.0 mM sodium pyruvate, 10% fetal bovine serum to 6×10^4 cells/mL. • SKMEL3 (ATCC catalog #HTB-69): resuspend in McCoy's 5A medium, 1.5 mM L-glutamine, 15% fetal bovine serum to 6×10^4 cells/mL. • IPC298 (DSMZ catalog #ACC 251): resuspend in RPMI 1640, 2 mM L-glutamine, 10% fetal bovine serum to 6×10^4 cells/mL.
(§3) The cells are plated, 50 μL in each well of a 96-well dish (Corning 3610) and incubated at 37° C. in 5% CO2 overnight, cells plated to a final concentration of cells as follows: • SW620: 5,000 cells per well. • A375: 2,000 cells per well. • COLO205: 2,000 cells per well. • SKMEL2: 2,000 cells per well. • SKMEL3: 3,000 cells per well. • IPC298: 2,000 cells per well.
(§4) On day 2, compound at a maximum concentration of 5 mM is serially diluted 1:3 (e.g. 10 μL with 30 μL dimethyl sulfoxide) for a total of 8 point titration with DMSO as a control. A 1 μL aliquot of each dilution point and control is added to 249 μL growth media and 50 μL is added to a well containing cells, providing 10 μM compound at the maximum concentration point. The cells are incubated for 3 days at 37° C. in 5% CO2.
(§5) On day 5, ATPlite 1 step Luminescence Assay System (Perkin Elmer #6016739) is brought to room temperature along with the cell cultures. ATPlite is added 25 μL to each well, shake for 2 minutes, and the cells are incubated at room temperature for 10 minutes, then luminescence is read on Satire reader. The measured luminescence correlates directly with cell number, such that the reading as a function of compound concentration is used to determine the IC50 value.

COLO205 = COLO205 cell growth inhibitory activity (ATPlite); type: cell-based; details: Homo sapiens, COLO 205, 72 h; COLO205 cells, growth inhibition, 3 days
Method: as §1, §2, §3, §4, §5

| SMILES | IC50 (A375) [µM] | IC50 (COLO205) [µM] |
| --- | --- | --- |
| CN1CCN(c2cc(-c3cnc4[nH]cc(C(=O)c5c(F)ccc(NS(=O)(=O)N6CCCC6)c5F)c4c3)ncn2)CC1 [Compound P-0319, N-[2,4-difluoro-3-[5-[6-(4-methylpiperazin-1-yl)pyrimidin-4-yl]-1H-pyrrolo[2,3-b]pyridine-3-carbonyl]phenyl]pyrrolidine-1-sulfonamide] | < 1 | < 1 |
| CCN(C)S(=O)(=O)Nc1cccc(C(=O)c2c[nH]c3ncc(-c4ccccc4)cc23)c1F [Compound P-0036, 3-[3-[[ethyl(methyl)sulfamoyl]amino]-2-fluoro-benzoyl]-5-phenyl-1H-pyrrolo[2,3-b]pyridine] | < 1 | > 1 |
| Cc1ccc(-c2cnc3[nH]cc(C(=O)c4cccc(NS(=O)(=O)N(C)C)c4F)c3c2)cn1 [Compound P-0029] | < 1 | < 1 |
| CCN(C)S(=O)(=O)Nc1cccc(C(=O)c2c[nH]c3ncc(-c4cccnc4)cc23)c1F [Compound P-0032] | < 1 | < 1 |
| CCN(C)S(=O)(=O)Nc1cccc(C(=O)c2c[nH]c3ncc(-c4cncc(C#N)c4)cc23)c1F [Compound P-0101, 5-(5-cyano-3-pyridyl)-3-[3-[[ethyl(methyl)sulfamoyl]amino]-2-fluoro-benzoyl]-1H-pyrrolo[2,3-b]pyridine] | < 1 |  |
| CCCN(C)S(=O)(=O)Nc1cccc(C(=O)c2c[nH]c3ncc(-c4cnc(NC5CC5)nc4)cc23)c1F [Compound P-0082, 5-[2-(cyclopropylamino)pyrimidin-5-yl]-3-[2-fluoro-3-[[methyl(propyl)sulfamoyl]amino]benzoyl]-1H-pyrrolo[2,3-b]pyridine] | < 1 | < 1 |
| CCOC(=O)C1CCCN1S(=O)(=O)Nc1cccc(C(=O)c2c[nH]c3ncc(-c4cnc(OC)nc4)cc23)c1F (stereo not drawn) [Compound P-0257, ethyl 1-[[2-fluoro-3-[5-(2-methoxypyrimidin-5-yl)-1H-pyrrolo[2,3-b]pyridine-3-carbonyl]phenyl]sulfamoyl]pyrrolidine-2-carboxylate] |  | > 1 |
| COc1ncc(-c2cnc3[nH]cc(C(=O)c4cccc(NS(=O)(=O)N5CCC(OCc6ccccc6)C5)c4F)c3c2)cn1 (stereo not drawn) [Compound P-0041, 3-benzyloxy-N-[2-fluoro-3-[5-(2-methoxypyrimidin-5-yl)-1H-pyrrolo[2,3-b]pyridine-3-carbonyl]phenyl]pyrrolidine-1-sulfonamide] | > 1 |  |
| COC(=O)CCS(=O)(=O)Nc1cccc(C(=O)c2c[nH]c3ncc(-c4cnc(OC)nc4)cc23)c1F [Compound P-0066, methyl 3-[[2-fluoro-3-[5-(2-methoxypyrimidin-5-yl)-1H-pyrrolo[2,3-b]pyridine-3-carbonyl]phenyl]sulfamoyl]propanoate] | < 1 | < 1 |
| CCN(C)S(=O)(=O)Nc1cccc(C(=O)c2c[nH]c3ncc(-c4cnc(N5CCCC5)nc4)cc23)c1F [Compound P-0108, 3-[3-[[ethyl(methyl)sulfamoyl]amino]-2-fluoro-benzoyl]-5-(2-pyrrolidin-1-ylpyrimidin-5-yl)-1H-pyrrolo[2,3-b]pyridine] | < 1 | > 1 |
| CCN(C)S(=O)(=O)Nc1cccc(C(=O)c2c[nH]c3ncc(-c4ccc(C5(C#N)CC5)cc4)cc23)c1F [Compound P-0061, 5-[4-(1-cyanocyclopropyl)phenyl]-3-[3-[[ethyl(methyl)sulfamoyl]amino]-2-fluoro-benzoyl]-1H-pyrrolo[2,3-b]pyridine] | < 1 | < 1 |
| CN(C)c1ccc(-c2cnc3[nH]cc(C(=O)c4cccc(NS(=O)(=O)N5CCCC5)c4F)c3c2)cn1 [Compound P-0046, N-[3-[5-[6-(dimethylamino)-3-pyridyl]-1H-pyrrolo[2,3-b]pyridine-3-carbonyl]-2-fluoro-phenyl]pyrrolidine-1-sulfonamide] | < 1 | < 1 |
| CCN(C)S(=O)(=O)Nc1ccc(F)c(C(=O)c2c[nH]c3ncc(-c4ccc(C#N)cc4)cc23)c1F [Compound P-0300, 5-(4-cyanophenyl)-3-[3-[[ethyl(methyl)sulfamoyl]amino]-2,6-difluoro-benzoyl]-1H-pyrrolo[2,3-b]pyridine] | < 1 | > 1 |
| CN(C)S(=O)(=O)Nc1ccc(F)c(C(=O)c2c[nH]c3ncc(-c4ccc(C(C)(C)C#N)cc4)cc23)c1F [Compound P-0255] | < 1 | < 1 |
| COC(=O)C1(c2ccc(-c3cnc4[nH]cc(C(=O)c5cccc(NS(=O)(=O)N6CCCC6)c5F)c4c3)cc2)CC1 [Compound P-0254, methyl 1-[4-[3-[2-fluoro-3-(pyrrolidin-1-ylsulfonylamino)benzoyl]-1H-pyrrolo[2,3-b]pyridin-5-yl]phenyl]cyclopropanecarboxylate] | < 1 | < 1 |
| CN(C)S(=O)(=O)Nc1cccc(C(=O)c2c[nH]c3ncc(-c4cnc(C#N)nc4)cc23)c1F [Compound P-0096, 5-(2-cyanopyrimidin-5-yl)-3-[3-(dimethylsulfamoylamino)-2-fluoro-benzoyl]-1H-pyrrolo[2,3-b]pyridine] | < 1 | < 1 |
| COc1ncc(-c2cnc3[nH]cc(C(=O)c4c(F)ccc(NS(=O)(=O)N5CCCC5)c4F)c3c2)s1 [Compound P-0270, N-[2,4-difluoro-3-[5-(2-methoxythiazol-5-yl)-1H-pyrrolo[2,3-b]pyridine-3-carbonyl]phenyl]pyrrolidine-1-sulfonamide] | < 1 | < 1 |
| COc1ncc(-c2cnc3[nH]cc(C(=O)c4cccc(NS(=O)(=O)C5CC5)c4F)c3c2)cn1 [Compound P-0067, N-[2-fluoro-3-[5-(2-methoxypyrimidin-5-yl)-1H-pyrrolo[2,3-b]pyridine-3-carbonyl]phenyl]cyclopropanesulfonamide] | < 1 | > 1 |
| CN(C)S(=O)(=O)Nc1cccc(C(=O)c2c[nH]c3ncc(-c4ccc(C(C)(C)C#N)cc4)cc23)c1F [Compound P-0245, 5-[4-(1-cyano-1-methyl-ethyl)phenyl]-3-[3-(dimethylsulfamoylamino)-2-fluoro-benzoyl]-1H-pyrrolo[2,3-b]pyridine] | < 1 | < 1 |
| CN(C)c1ccc(-c2cnc3[nH]cc(C(=O)c4cccc(NS(=O)(=O)N(C)C)c4F)c3c2)cn1 [Compound P-0030] | < 1 | < 1 |
| N#Cc1ncc(-c2cnc3[nH]cc(C(=O)c4cccc(NS(=O)(=O)N5CCCC5)c4F)c3c2)cn1 [Compound P-0091, N-[3-[5-(2-cyanopyrimidin-5-yl)-1H-pyrrolo[2,3-b]pyridine-3-carbonyl]-2-fluoro-phenyl]pyrrolidine-1-sulfonamide] | < 1 | < 1 |
| CC(C)(O)c1ccc(-c2cnc3[nH]cc(C(=O)c4cccc(NS(=O)(=O)N5CCCC5)c4F)c3c2)cc1 [Compound P-0105, N-[2-fluoro-3-[5-[4-(1-hydroxy-1-methyl-ethyl)phenyl]-1H-pyrrolo[2,3-b]pyridine-3-carbonyl]phenyl]pyrrolidine-1-sulfonamide] | < 1 | < 1 |
| CC1(C)CCN(S(=O)(=O)Nc2cccc(C(=O)c3c[nH]c4ncc(-c5cnc(C6CC6)nc5)cc34)c2F)C1 [Compound P-0246, N-[3-[5-(2-cyclopropylpyrimidin-5-yl)-1H-pyrrolo[2,3-b]pyridine-3-carbonyl]-2-fluoro-phenyl]-3,3-dimethyl-pyrrolidine-1-sulfonamide] | > 1 |  |
